How the values were obtained:
[1] = target: CYP2C19 (Homo sapiens, UniProt P33261); conditions: bioactivation of CPF, ref Foxenberg et al. [2007]; cited from earlier work
[2] = tested on: RBC AChE; assay: PBK model-based reverse dosimetry and BMD analysis of RBC AChE inhibition; design: species or system human
Experimental: In the present study, PBK model-based reverse dosimetry was applied to translate the in vitro rhAChE inhibition concentration–response curve into in vivo RBC AChE inhibition dose–response curves first for the average adult population.
The external dose values thus obtained together with corresponding inhibitory effects were used to construct RBC AChE inhibition dose–response curves for the average population.
A BMD analysis was performed to derive a POD from the predicted in vivo dose–response curves obtained for the average population. In the present study, the BMDL10 values were used as POD based on the fact that the United States Environmental Protection Agency (USEPA) also used a 10% effect level to define a health based guidance value (USEPA [2011], [2014]). BMD analysis was carried out using the Benchmark Dose Software version 3.1.2 (USEPA [2019]), with exponential or hill models because of their adequacy in predicting continuous data. The BMDL10 value with the lowest AIC was chosen and further evaluated by comparing the obtained values with reported BMDL10 by USEPA ([2011], [2014]).

[3] = target: T1, CYP1A2 (Homo sapiens, UniProt P05177); conditions: bioactivation of CPF, ref Foxenberg et al. [2007]; cited from earlier work
T1 sequence (P05177 2-516 limits assumed): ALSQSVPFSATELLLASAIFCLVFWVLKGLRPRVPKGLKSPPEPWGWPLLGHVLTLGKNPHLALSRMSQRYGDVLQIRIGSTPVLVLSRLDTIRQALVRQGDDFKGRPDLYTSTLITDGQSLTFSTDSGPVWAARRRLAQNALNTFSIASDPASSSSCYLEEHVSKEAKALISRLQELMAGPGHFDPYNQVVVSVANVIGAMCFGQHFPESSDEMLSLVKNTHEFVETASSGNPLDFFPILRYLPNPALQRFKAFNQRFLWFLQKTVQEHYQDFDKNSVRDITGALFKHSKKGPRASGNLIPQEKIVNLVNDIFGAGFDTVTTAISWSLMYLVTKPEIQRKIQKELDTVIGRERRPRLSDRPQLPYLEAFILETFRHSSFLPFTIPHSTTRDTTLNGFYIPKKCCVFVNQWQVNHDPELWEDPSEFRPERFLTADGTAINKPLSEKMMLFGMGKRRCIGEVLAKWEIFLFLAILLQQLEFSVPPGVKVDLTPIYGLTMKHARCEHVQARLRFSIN

Sequence of CYP2C19 (P33261 whole entry): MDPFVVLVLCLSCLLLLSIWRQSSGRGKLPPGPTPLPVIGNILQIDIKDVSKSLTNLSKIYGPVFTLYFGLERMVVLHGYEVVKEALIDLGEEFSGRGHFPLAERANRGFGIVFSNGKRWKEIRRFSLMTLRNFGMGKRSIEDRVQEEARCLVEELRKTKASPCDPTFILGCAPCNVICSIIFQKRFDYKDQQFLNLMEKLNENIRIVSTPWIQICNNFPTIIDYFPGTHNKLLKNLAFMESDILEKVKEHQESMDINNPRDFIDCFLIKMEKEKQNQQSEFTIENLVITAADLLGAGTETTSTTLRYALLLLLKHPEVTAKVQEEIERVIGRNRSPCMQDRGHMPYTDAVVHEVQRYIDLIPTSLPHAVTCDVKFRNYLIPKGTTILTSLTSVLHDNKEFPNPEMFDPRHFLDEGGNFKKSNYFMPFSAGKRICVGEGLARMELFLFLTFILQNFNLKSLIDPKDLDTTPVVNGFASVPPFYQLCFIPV

Compound: CCOP(=S)(OCC)Oc1nc(Cl)c(Cl)cc1Cl [CPF, Chlorpyrifos]
- Km [1]: 1.23 µM
- predicted BMDL10 lower than reported human model-derived BMDL10 ([2]; HLM-based biphasic PBK model versus USEPA [2014]): 1.8 fold
- predicted BMDL10 lower than reported human model-derived BMDL10 ([2]; Supersome-based PBK model versus USEPA [2014]): 1.9 fold
- BMDL10 of HLM-based approach with biphasic kinetics versus HLM-based approach without high affinity component ([2]; average population): sixfold lower
- difference in BMDL10 between HLM-based (biphasic) and Supersome-based PBK model ([2]; average population): 1.04 fold
- predicted BMDL10 higher than reported human model-derived BMDL10 ([2]; non-biphasic HLM-based PBK model versus USEPA [2014]): 3.3 fold
- Km [3]: 0.38 µM

From publication PMC9013686, “Inter-individual variation in chlorpyrifos toxicokinetics characterized by physiologically based kinetic (PBK) and Monte Carlo simulation comparing human liver microsome and Supersome™ cytochromes P450 (CYP)-specific kinetic data as model input” (Archives of Toxicology, 2022)
